Data reported in patent US8518965B2, “Compositions and methods for treating cancer” (Trustees of Dartmouth College, priority 2009, dated 2013).
Like-named read-outs stand apart in the source and are kept apart here.

Columns and labels:
[1] = test system: HCT116 human colon cancer xenografts; assay: In vivo efficacy, HCT116 xenografts in nude mice; design: species or system nude mice (nu/nu genotype); settings: single i.p. injection
Procedure: This in vivo anticancer efficacy study was performed on nude mice (nu/nu genotype) bearing HCT116 human colon cancer xenografts. These human tumors grew exponentially following implantation into the flanks of the mice and reached a diameter of 3 mm. Treatment was initiated at that time, with the first day of treatment designated as day 0 for all calculations and plots. […] Mice in the control group, bearing 3 mm diameter tumors, were treated with vehicle alone. After treatment, tumor sizes were measured by caliper every day. Daily measurement of the tumor diameters (d1, d2) in two orthogonal directions was used to calculate the tumor volume (tumor volume=π/6{(d1+d2)/2}^3) using the approximation that the tumors were spherical. The values of time (days) required to grow the tumor to the size of 1,000 cu. mm after various treatments and tumor growth delay percentage were calculated for evaluating the treatment effects. Survival times and tumor inhibitory effects on day 20 after treatment were also observed and recorded.

[2] = Solubility in solvents and buffers; type: physicochemical; settings: for solubility: read-out: Solubility (mg/ml), 25° C.
Procedure: Characterization of D11B. The solubility of D11B in different solvents was analyzed (Table 1).
The solubility of D11B in various combinations of solvents was also analyzed. […] For the analysis of co-solvents, stock solutions were prepared by dissolving D11B in a corresponding solvent. Stock solutions of D11B in dimethylsulfoxide (DMSO) were prepared at 25° C., and stock solutions of D11B in PEG-400, CREMOPHOR® EL and Polysorbate 80 were prepared at 100° C. Injection solutions, in water (0.3 mg/ml), were prepared by dropwise addition of the stock solution to a required volume of vigorously stirred hot water (80° C.).
The solubility of D11B×2AH in DMSO, PEG-400, EtOH, and buffer was determined (Table 7).

## c1ccc2c(Nc3ccc(Oc4ccc(Nc5c6ccccc6nc6ccccc56)cc4)cc3)c3ccccc3nc2c1 [Compound D11B]
[1]; control group 19.7 days
  Mean survival time: 40.5 days
[1]; time for growth up to the tumor volume of 1,000 cu. mm
  Tumor growth delay percentage: 131%
[1]; tumor growth on day 20 after drug administration
  Inhibition ratio: 4.65
[2]; 5% dextrose in water
  Solubility in 5% dextrose in water: negligible
[2]; AcOH, 25 °C, organic solvent or mixture, AcOH
  solubility: ~0.01 mg/mL
[2]; AcOH-H2O (1-1), 25 °C, aqueous with cosolvent or surfactant or cyclodextrin, AcOH—H2O (1-1)
  solubility: > 1.1 mg/mL
[2]; AcOH-H2O (9-1), 25 °C, organic solvent or mixture, AcOH—H2O (9-1)
  solubility: > 13 mg/mL
[2]; CHCl3, 25 °C, organic solvent or mixture, CHCl3
  solubility: 0.12 mg/mL
[2]; DMF, 25 °C, organic solvent or mixture, DMF
  solubility: ~20 mg/mL
[2]; DMSO, 25 °C, organic solvent or mixture, DMSO
  solubility: ~100 mg/mL
[2]; H2O
  Solubility (mg/ml), 25° C.: negligible
[2]; MeOH, 25 °C, organic solvent or mixture, MeOH
  solubility: ~1 mg/mL
[2]; Na2HPO4-citric acid buffer, 25 °C, pH 4, aqueous buffer, Na2HPO4-citric acid buffer (pH = 4), first entry
  solubility: < 0.1 mg/mL
[2]; Na2HPO4-citric acid buffer, 25 °C, pH 4, aqueous buffer, Na2HPO4-citric acid buffer (pH = 4), second entry
  solubility: < 0.1 mg/mL
[2]; PEG-400, 25 °C, organic solvent or mixture, PEG-400, heating to 100° C. was required
  solubility: ~12 mg/mL
[2]; saline (0.9% NaCl in water)
  Solubility in saline: negligible
